Patent US20230090884A1, “DEVICE AND METHODS FOR ISOLATING EXTRACELLULAR MATRIX BODIES” (AUFBAU MEDICAL INNOVATIONS LIMITED, priority 2020, published 2023)
pEC50: −log10 of the molar value.

Test: Dose-response in microfluidic chip device: change in chip pressure (intraocular pressure model) after treatment of bovine vitreous humor
Conditions: 12.5% homogenized BVH in PBS incubated with compound at 37° C. for 1 hour; 7 ul injected; relative change in chip pressure recorded for 50 min; half-maximal response; read-out: EC50 for treatment of bovine vitreous humor (glaucoma model)
Description: The compound bivalirudin TFA was tested in bovine vitreous humor (BVH) in a microfluidic chip device. A solution of 25% homogenized BVH in PBS buffer was prepared and diluted with an equal amount of a solution of the compound, so that the total BVH concentration was 12.5%. The sample was vortexed and incubated at 37° C. for 1 hour. A control of either PBS buffer or PBS with 10% ethanol or DMSO was used and incubated with BVH under the same conditions.
The test compound-BVH solution was introduced into the reservoir of the microfluidic chip device and flow rate and pressure change were recorded. Various concentrations of the compound were tested for effects on the treatment of bovine vitreous humor. 7 ul of each test solution was injected into the microfluidic chip through a sample injector. Recording of the flow rate and pressure change was continued for 50 additional minutes after the sample injection. The relative change in chip pressure for the entire course of the experiment was obtained.
The EC50 value was taken as the point on the x-axis at which the logarithmic function of the micromolar concentration of the compound produced half-maximal response. […] The response was calculated by taking the absolute difference between the control and test value for each concentration. […]

Row | Substance | pEC50
1 | bivalirudin TFA | 8.92
2 | polymyxin B sulfate | 8.37
